The text below walks through data of patent USRE38423E1, “Process for in vitro analysis of toxic and allergenic substances” (Biovator Technologies AB, priority 1995, dated 2004).

Data set [1] concerns human whole blood. Nature of the data set: Proliferation assay, 3H-thymidine incorporation in diluted whole blood cultures. In kind it is cell-based. The note with it: for Prolif. Index (3H-Thymidine Proliferation): blood from 5 normal humans, highest value at any time or concentration, related to medium control given the value 100; for proliferative response (in words): summary of results, 3H-thymidine incorporation. The method, then: (§1) Five healthy blood donors from both sexes ranging in age between 25 and 55 years are used. Blood is collected by venous puncture into endotoxin free heparin tubes (Coatech, Ljungby, Sweden) that contains 120 IU heparin and are filled with 4 ml of blood. None of the blood donors are allowed to have a history of allergy or atopic excema or any indication of ongoing disease of any kind.
(§2) 100 ul of blood is added to the wells of Nunclon microtiter plates.
(§3) For substances to be tested for effects in the system different concentration are added to the blood. The highest concentration of the substance being non toxic to the cells indicated by inspection in microscopic in presence of vital stain e.g. trypan blue is used as start concentration.
(§4) The microtiter plates are incubated at 37° C. at 90% humidity and with 5% CO2. An appropriate number of identical plates are prepared and are taken out of the incubator for testing at intervals of, 1 day, 2 days and 6 days.
One set of plates is used to estimate the proliferative activity of the donor cells spontaneously (=medium or substance dissolved controls); in response to PHA, and in response to samples of test substances at various concentrations. The highest concentration of sub-stance non toxic to the cells indicated by inspection in microscope in presence of vital stain (e.g. trypan blue) is used as start concentration. Ser. dilutions of the sub-stance is then performed as stated above.
The plates were incubated for additional 4 hours at 37° C. The cells were then collected using a Skatron cell harvester (Skatron, Lier, Norway) and Titertek paper filters. The result of his procedure is that the DNA of the cells is stuck in the filter paper, whereas the ^3H-thymidin not incorporated in the DNA passes through the filter and goes with the waste washing water. The radioactivity in the filter papers is thus proportional to the DNA synthesis that occured during the 4 hours preceding the harvesting procedure. The radiactivity of the filter papers is determined in a Packard liquid scintillation counter, and thymidine incorporation was expressed as counts per minute (cpm).
(§5) The highest value as compared to medium control obtained at any time or concentration for each substance is used as indicator value in the table and related to medium control put to value 100 index.

In data set [2] the test system is human whole blood. In kind it is cell-based. Details: key to IL-1 / IFNγ / Neopterin / TNF / IL-6 / IL-8 / IL-2 / STL-2R / SCD8 / IL-10 / IL-4: index relative to medium control = 100. The note with it: for IFNγ / IL-1 / IL-2 / IL-4 / IL-6 / IL-8 / IL-10 / Neopterin / SCD8 / STL-2R / TNF: blood from 5 normal humans, highest value at any time or concentration, related to medium control given the value 100. On the procedure:
as §1, §2, §3, §4
Another set of plates is prepared with the same design as in “Culture protocol” above. Cytokines released from the cultured cells are measured in the supernatants obtained after centrifugation of the plates at 650 g for 10 minutes. The supernatants were either tested immediately or stored at −20° C. until tested.
The instructions of the manufacturers were followed. All these tests are enzyme immunoassays (EIA:s). The principle is that microtiter plate wells are labeled with a cytokine specific capture antibody. If cytokine is present in the samples added to the wells it will be captured to the bottom of the well. […] The reaction is thereafter measured as colour developed after addition of a substrate for the enzyme. The values for the test wells is compared with a standard curve obtained by adding a series of known amounts of cytokine. The values obtained for control wells with no substance added are used as background values for cytokine levels and proliferation as measured by ^3H-thymidin incorporation. Positive indications are recorded when values above 2 SD of the variation of the controls are obtained.
as §5

Setting [3] is: summary of results, secreted into supernatants.

In the case of Triton X-100, in the data set with human whole blood [1], the “Prolif. Index (3H-Thymidine Proliferation)” value (“Prolif. Index” for short) is reported as 200 and the “proliferative response (in words)” value is on record as “induced proliferation”. Also, in the data set on human whole blood [2], the IFNγ came out at 120, the IL-1 is 630, the IL-2 was found to be 85 and the IL-4 was determined as 85. In the data set with human whole blood [2], this compound showed an IL-6 of 460, an IL-8 of 200, an IL-10 of 95 and a Neopterin of 110. Further, in the data set with human whole blood [2], the SCD8 is 95, the STL-2R was 115 and the TNF was 400. In addition, the “predicted adverse reaction from cytokine pattern (in words)” value with human whole blood [2] (interpretation of the cytokine profile) is recorded as “positive tissue irritant”. In the data set on human whole blood [2] (setting [3]), the “unspecific inflammatory / tissue toxic group cytokines induced (in words)” value is “IL-1, IL-6 and TNF”.
As for `[Cl][Ni][Cl]` [IV, Nickel chloride], in the data set with human whole blood [1], the “Prolif. Index” value stood at 1340 and the “proliferative response (in words)” value was “low proliferative response”. For the same compound, in the data set on human whole blood [2], the IFNγ stood at 1220, the IL-1 turned out to be 1165, the IL-2 amounted to 445 and the IL-4 worked out at 80. In the data set with human whole blood [2], this compound showed an IL-6 of 660, an IL-8 of 380, an IL-10 of 800 and a Neopterin of 90. In the data set with human whole blood [2], this compound displayed an SCD8 of 110, an STL-2R of 130 and a TNF of 225. In addition, in the data set with human whole blood [2] (setting [3]), the “Neopterin induction (in words)” value is “no Neopterin”; the “immune lymphocyte class / specific immune response cytokines induced (in words)” value was “IFN-gamma, IL-2 and IL-10”; the “unspecific inflammatory / tissue toxic group cytokines induced (in words)” value was “IL-1, IL-6, TNF and IL-8”.
phytohemagglutinin [Plus]: in the data set with human whole blood [1], the “Prolif. Index” value was found to be 2600 and the “proliferative response (in words)” value was “strong proliferative response”. Further, in the data set on human whole blood [2], the IFNγ was determined as 800, the IL-1 was found to be 690, the IL-2 came out at 750 and the IL-4 is 820. Further, in the data set on human whole blood [2], the IL-6 was found to be 1620, the IL-8 is on record as 780, the IL-10 is recorded as 1250 and the Neopterin is recorded as 440. For the same compound, in the data set on human whole blood [2], the SCD8 was determined as 940, the STL-2R is listed as 1820 and the TNF was 420. In the data set on human whole blood [2] (setting [3]), the “immune lymphocyte class / specific immune response cytokines induced (in words)” value was “neopterin, IFN-gamma IL-2 and IL-4 and IL-10”; the “unspecific inflammatory / tissue toxic group cytokines induced (in words)” value is “IL-1, IL-6, TNF and IL-8”.
